# Source: patent EP1097956A1, “Low endocrine disruptor polycarbonate resin” (Mitsubishi Gas Chemical Company, Inc., priority 1999, dated 2001)
# Molecular target: T1, estrogen receptor (Rattus norvegicus, UniProt P06211)
# T1 construct: from tissue; host or cells: uterus of matured female rat, homogenate supernatant (105,000 x G)
# T1 sequence (P06211 1-600): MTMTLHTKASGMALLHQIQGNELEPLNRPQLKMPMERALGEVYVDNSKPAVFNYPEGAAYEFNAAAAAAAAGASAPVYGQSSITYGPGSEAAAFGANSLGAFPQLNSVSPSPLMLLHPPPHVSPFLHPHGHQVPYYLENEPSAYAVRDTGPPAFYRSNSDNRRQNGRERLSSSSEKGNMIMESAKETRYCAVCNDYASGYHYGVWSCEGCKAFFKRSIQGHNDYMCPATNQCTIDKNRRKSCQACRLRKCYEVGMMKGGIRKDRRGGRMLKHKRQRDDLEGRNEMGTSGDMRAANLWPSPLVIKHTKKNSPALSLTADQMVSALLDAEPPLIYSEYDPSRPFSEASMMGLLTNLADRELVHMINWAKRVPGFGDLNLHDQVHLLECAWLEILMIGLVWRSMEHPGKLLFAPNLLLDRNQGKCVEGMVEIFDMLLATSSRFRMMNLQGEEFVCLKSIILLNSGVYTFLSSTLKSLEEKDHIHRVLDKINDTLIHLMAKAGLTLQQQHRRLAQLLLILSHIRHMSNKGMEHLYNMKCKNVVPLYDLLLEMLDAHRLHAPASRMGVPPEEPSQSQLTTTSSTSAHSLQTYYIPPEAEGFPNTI
# Test: estrogen receptor affinity by exchange curve method ([3H]-estradiol displacement, membrane specimen from rat uterus)
# Type: binding
# Conditions: IC50, evaluated sample itself (bisphenols, phenols); concentration necessary to exchange 50% of estrogen bound receptor
# Source text: The smaller the numeral value, the higher is affinity between a chemical substance and estrogen receptor, i.e., the higher is so-called endocrine disruptor. […]
# Appendix J and "Medication receptor" P33-34, edited by Kazunari Takayanagi, Nanzando in Japan.
# Firstly, a matured female rat was butchered and then its uterus was taken out. Then, fatty portions adhered to tissue portion of the uterus were removed and the uterus removed fatty portions was weighed and then placed in ice. The tissue was sliced so as to form a corner of 1 to 2 mm and. The sliced tissue was put in a Polytron homogenizer cooled in advance in ice and ice cooled TEDG buffer solution (10 mM tris·HCl((pH 7.6), 1.5 mM EDTA, 1 mM DTT and 10 % Glycerol) of 1.0 ml per 50 mg of tissue was added therein and homogenized for 5 seconds. The homogenate was put in a centrifugal tube cooled in advance and centrifuged for 60 minutes at 105,000×G(gravitational unit), whereby a supernatant liquid was obtained as a membrane specimen containing estrogen receptor.
# Each the reaction solution thus prepared was vacuum dried and then placed in ice.
# 1 ml of the above-prepared supernatant liquid of homoginate containing estrogen receptor was added to each tube and softly stirred and then each tube was capped to incubate at 4 °C for 20 hours. Each mixed solution was poured on a filter attached a glass filter paper and aspiration filtered and then the glass filter paper was rinsed with an ice cooled rinsing buffer solution (50 mM Tris·HCl (pH7.6)). Each the glass filter paper was dried and then each radioactivity was measured with a liquid scintillation counter.
row,Structure (SMILES),IC50 [µM]
1,"Cc1cc(C2(c3ccc(O)c(C)c3)c3ccccc3-c3ccccc32)ccc1O [BCFL, 9,9-bis(3-methyl-4-hydroxyphenyl) fluorene]",> 264
2,"Oc1ccc(C(c2ccccc2)(c2ccccc2)c2ccc(O)cc2)cc1 [BPBP, bis(4-hydroxyphenyl)diphenyl methane]",6.53
3,"CC(C)(c1ccc(O)cc1)c1cccc(C(C)(C)c2ccc(O)cc2)c1 [BPM, 4,4'-[1,3-phenylenebis(1-methylethylidene)] bisphenol]",< 0.289
4,"Oc1ccc(C2(c3ccc(O)cc3)CCCCC2)cc1 [BPZ, 1,1-bis(4-hydroxyphenyl) cyclohexane]",< 0.373
5,"CCCCCCCCCc1ccc(O)cc1 [NP, 4-nonylphenol]",4.08
6,"C=C(CC(C)(C)c1ccc(O)cc1)c1ccc(O)cc1 [PIPLD, 4-methyl-2,4-bis(4-hydroxyphenyl)-1-pentene]",< 0.373
7,"CC1CC(C)(C)CC(c2ccc(O)cc2)(c2ccc(O)cc2)C1 (centres unmarked) [TMBPZ, 3,3,5-trimethyl-1,1-bis(4-hydroxyphenyl)cyclohexane]",< 0.322
8,CC(C)(C)c1ccc(O)cc1 [p-t-butyl phenol],173

# Same assay, conditions: evaluated sample itself (bisphenols, phenols); concentration necessary to exchange 50% of estrogen bound receptor; read-out: IC50 (converted)
row,IC50 [µM],Structure (SMILES)
1,< 0.297,"Oc1ccc(C(c2ccc(O)cc2)(C(F)(F)F)C(F)(F)F)cc1 [BPAF, 2,2-bis(4-hydroxyphenyl) hexafluoropropane]"
2,1.72,"CC(c1ccccc1)(c1ccc(O)cc1)c1ccc(O)cc1 [BPAP, 1,1-bis(4-hydroxyphenyl)-1-phenylethane]"
3,6.99,"Oc1ccc(Cc2ccc(O)cc2)cc1 [BPF, bis(4-hydroxyphenyl)methane]"
4,< 8.85,"Oc1ccc(C2(c3ccc(O)cc3)c3ccccc3-c3ccccc32)cc1 [BPFL, 9,9-bis(4-hydroxyphenyl) fluorene]"
5,< 4.18,"Cc1cc(C2(c3cc(C)c(O)c(C)c3)c3ccccc3-c3ccccc32)cc(C)c1O [BXFL, 9,9-bis(4-hydroxy-3,5-dimethylphenyl) fluorene]"
6,2.92,"CC1(C)CC2(CC(C)(C)c3ccc(O)cc32)c2cc(O)ccc21 [SPI, 6,6'-dihydroxy-3,3,3',3'-tetramethyl-1, 1'-spiro biindan]"
7,< 0.458,"Oc1ccc(Sc2ccc(O)cc2)cc1 [TDP, bis(4-hydroxyphenyl) sulfide]"

row,Structure (SMILES),IC50 [µM]
1,"CC(C)(c1ccc(O)cc1)c1ccc(O)cc1 [BPA, 2,2-bis(4-hydroxyphenyl) propane]",32

# Test system: rat
# Test: not given
# Conditions: cited from earlier work
row,Structure (SMILES),dosage by which the action like the female hormone was developed [mg/kg/day]
1,"CC(C)(c1ccc(O)cc1)c1ccc(O)cc1 [BPA, 2,2-bis(4-hydroxyphenyl) propane]",800

# Test system: pregnant mice
# Test: not given
# Conditions: 2 and 20 µg/kg/day dosed orally to pregnant mice; cited from earlier work
Structure (SMILES),efficiency of sperm production in male offspring,prostate weights in male offspring
"CC(C)(c1ccc(O)cc1)c1ccc(O)cc1 [BPA, 2,2-bis(4-hydroxyphenyl) propane]",decrease in the efficiency of sperm production,increase in prostate weights

# Test system: not given
# Test: not given
# Conditions: stipulated by the U. S. Environmental Protection Agency and the Japanese Ministry of Health and Welfare; cited from earlier work
row,Structure (SMILES),acceptabel daily intake [µg/kg/day]
1,"CC(C)(c1ccc(O)cc1)c1ccc(O)cc1 [BPA, 2,2-bis(4-hydroxyphenyl) propane]",50
